Measured values published in ChEMBL document CHEMBL5260810, “Inhibition of bromodomain-containing protein 9 for the prevention of epigenetically-defined drug resistance” (Bioorg Med Chem Lett, 2017).

Legend:
Format in all cases: functional, cell-based
[1] = tested on: UMUC3; test: Cytotoxicity against human UMUC3 cells measured after 8 days; conditions: UMUC3, 192 h
[2] = Cytotoxicity against human HCS-2 cells measured after 8 days; conditions: HCS-2, 192 h
[3] = tested on: HGC-27; test: Cytotoxicity against human HGC-27 cells measured after 8 days; conditions: HGC-27, 192 h
[4] = Cytotoxicity against human OVCA432 cells measured after 8 days; conditions: OVCA432, 192 h
[5] = Cytotoxicity against human BT-B cells measured after 8 days; conditions: 192 h
[6] = tested on: C2BBe1; test: Cytotoxicity against human C2BBe1 cells measured after 8 days; conditions: C2BBe1, 192 h
[7] = Cytotoxicity against human SBC-7 cells measured after 8 days; conditions: SBC-7, 192 h
[8] = tested on: 8305C; test: Cytotoxicity against human 8305C cells measured after 8 days; conditions: 192 h
[9] = Cytotoxicity against human PaTu 8902 cells measured after 8 days; conditions: PaTu 8902, 192 h
[10] = tested on: MCF-10A; test: Cytotoxicity against human MCF-10A CDH1-/- cells measured after 8 days; conditions: 192 h
[11] = Cytotoxicity against human HCC1623 cells measured after 8 days; conditions: HCC1623, 192 h
[12] = tested on: RPMI-2650; test: Cytotoxicity against human RPMI-2650 cells measured after 8 days; conditions: RPMI-2650, 192 h
[13] = Cytotoxicity against human JHH-1 cells measured after 8 days; conditions: JHH1, 192 h
[14] = Cytotoxicity against human KPP14449 cells measured after 8 days; conditions: KPP14449, 192 h
[15] = Cytotoxicity against human HCA1 cells measured after 8 days; conditions: HCA1, 192 h
[16] = Cytotoxicity against human KP-3L cells measured after 8 days; conditions: 192 h
[17] = tested on: OVCAR-5; test: Cytotoxicity against human OVCAR-5 cells measured after 8 days; conditions: OVCAR-5, 192 h
[18] = Cytotoxicity against human KPP14388 LN cells measured after 8 days; conditions: 192 h
[19] = tested on: HN; test: Cytotoxicity against human HN cells measured after 8 days; conditions: 192 h
[20] = tested on: BT-20; test: Cytotoxicity against human BT-20 cells measured after 8 days; conditions: BT-20, 192 h
[21] = Cytotoxicity against mouse AB22 cells measured after 8 days; conditions: AB22, 192 h
[22] = tested on: A2780; test: Cytotoxicity against human A2780 cells measured after 8 days; conditions: A2780, 192 h
[23] = tested on: SF-268; test: Cytotoxicity against human SF-268 cells measured after 8 days; conditions: SF-268, 192 h
[24] = tested on: KURAMOCHI; test: Cytotoxicity against human KURAMOCHI cells measured after 8 days; conditions: 192 h
[25] = Cytotoxicity against human ONCO-DG-1 cells measured after 8 days; conditions: ONCO-DG-1, 192 h
[26] = Cytotoxicity against human OV56 cells measured after 8 days; conditions: OV56, 192 h
[27] = tested on: IMR-32; test: Cytotoxicity against human IMR-32 cells measured after 8 days; conditions: IMR-32, 192 h
[28] = tested on: NCI-H2170; test: Cytotoxicity against human NCI-H2170 cells measured after 8 days; conditions: NCI-H2170, 192 h
[29] = tested on: KMS-12-PE; test: Cytotoxicity against human KMS-12-PE cells measured after 8 days; conditions: 192 h
[30] = tested on: WM 266-4; test: Cytotoxicity against human WM266-4 cells measured after 8 days; conditions: WM 266-4, 192 h
[31] = Cytotoxicity against human TYK-nu.CP-r cells measured after 8 days; conditions: 192 h
[32] = Cytotoxicity against human COV362 cells measured after 8 days; conditions: COV362, 192 h
[33] = Cytotoxicity against human PMF-ko14 cells measured after 8 days; conditions: PMF-ko14, 192 h
[34] = Cytotoxicity against human RERF-GC-1B cells measured after 8 days; conditions: 192 h
[35] = Cytotoxicity against human CL-34 cells measured after 8 days; conditions: CL-34, 192 h
[36] = Cytotoxicity against human NCE-G 61 cells measured after 8 days; conditions: NCE-G 61, 192 h
[37] = tested on: HeLa; test: Cytotoxicity against human HeLa cells measured after 8 days; conditions: 192 h
[38] = tested on: Karpas-1106P; test: Cytotoxicity against human KARPAS-1106P cells measured after 8 days; conditions: 192 h
[39] = tested on: PLC-PRF-5; test: Cytotoxicity against human PLCPRF5 cells measured after 8 days; conditions: PLC-PRF-5, 192 h
[40] = tested on: AGS; test: Cytotoxicity against human AGS cells measured after 8 days; conditions: 192 h
[41] = tested on: A20; test: Cytotoxicity against mouse A20 cells measured after 8 days; conditions: A20, 192 h
[42] = Cytotoxicity against human HCC60 cells measured after 8 days; conditions: HCC60, 192 h
[43] = Cytotoxicity against human 4498-14745 Mel-BR3 cells measured after 8 days; conditions: 4498-14745 Mel-BR3, 192 h
[44] = tested on: SU-DHL-6; test: Cytotoxicity against human SU-DHL-6 cells measured after 8 days; conditions: SU-DHL-6, 192 h
[45] = Cytotoxicity against human KP-N-SI9s cells measured after 8 days; conditions: 192 h
[46] = tested on: MOLM-13; test: Cytotoxicity against human MOLM-13 cells measured after 8 days; conditions: MOLM-13, 192 h
[47] = tested on: SW780; test: Cytotoxicity against human SW780 cells measured after 8 days; conditions: SW780, 192 h
[48] = Cytotoxicity against human Hs 38.T cells measured after 8 days; conditions: 192 h
[49] = tested on: KYSE-140; test: Cytotoxicity against human KYSE-140 cells measured after 8 days; conditions: KYSE-140, 192 h
[50] = Cytotoxicity against human NB(TU)1 cells measured after 8 days; conditions: NB(TU)1, 192 h
[51] = Cytotoxicity against human BICR 22 cells measured after 8 days; conditions: BICR 22, 192 h
[52] = tested on: ACHN; test: Cytotoxicity against human ACHN cells measured after 8 days; conditions: 192 h
[53] = tested on: Hep 3B2; test: Cytotoxicity against human Hep 3B2.1-7 cells measured after 8 days; conditions: Hep3B, 192 h
[54] = Cytotoxicity against human NCI-H2135 cells measured after 8 days; conditions: NCI-H2135, 192 h
[55] = Cytotoxicity against human HEC-251 cells measured after 8 days; conditions: HEC-251, 192 h
[56] = tested on: MIA PaCa-2; test: Cytotoxicity against human MIA Paca-2 cells measured after 8 days; conditions: MIA PaCa-2, 192 h
[57] = tested on: Detroit 562; test: Cytotoxicity against human Detroit 562 cells measured after 8 days; conditions: Detroit 562, 192 h
[58] = tested on: KYSE-70 cell line; test: Cytotoxicity against human KYSE-70 cell line measured after 8 days; conditions: KYSE-70, 192 h
[59] = tested on: PC-9; test: Cytotoxicity against human PC-9 cells assessed as decrease in drug tolerant population supplemented with fresh medium containing compound every 3 days for 9 days in presence of erlotinib by Beckman Coulter counting method; conditions: time 9.0 day
[60] = Cytotoxicity against human SK23 cells measured after 8 days; conditions: SK-MEL-23, 192 h
[61] = tested on: SNU-475; test: Cytotoxicity against human SNU-475 cells measured after 8 days; conditions: SNU-475, 192 h

Question: With C/C=C/Cn1cc(-c2ccc(C(C)(C)O)cc2OC)c2cc[nH]c2c1=O as the molecule, how does the IC50 [1] read?
Answer: 20 µM

Question: And the IC50 [2]?
Answer: 20 µM

Question: What about the IC50 [3] of the same molecule?
Answer: 14.4 µM

Question: And the IC50 [4]?
Answer: 20 µM

Question: And the IC50 [5]?
Answer: 20 µM

Question: What about the IC50 [6] of the same molecule?
Answer: 20 µM

Question: And the IC50 [7]?
Answer: 20 µM

Question: And the IC50 [8]?
Answer: 20 µM

Question: And the IC50 [9]?
Answer: 20 µM

Question: And the IC50 [10]?
Answer: 20 µM

Question: And the IC50 [11]?
Answer: 20 µM

Question: And the IC50 [12]?
Answer: 20 µM

Question: What about the IC50 [13] of the same molecule?
Answer: 20 µM

Question: What about the IC50 [14] of the same molecule?
Answer: 20 µM

Question: What about the IC50 [15] of the same molecule?
Answer: 20 µM

Question: And the IC50 [16]?
Answer: 20 µM

Question: And the IC50 [17]?
Answer: 20 µM

Question: And the IC50 [18]?
Answer: 20 µM

Question: And the IC50 [19]?
Answer: 20 µM

Question: And the IC50 [20]?
Answer: 20 µM

Question: What about the IC50 [21] of the same molecule?
Answer: 20 µM

Question: What about the IC50 [22] of the same molecule?
Answer: 20 µM

Question: What about the IC50 [23] of the same molecule?
Answer: 20 µM

Question: And the IC50 [24]?
Answer: 20 µM

Question: And the IC50 [25]?
Answer: 20 µM

Question: What about the IC50 [26] of the same molecule?
Answer: 20 µM

Question: What about the IC50 [27] of the same molecule?
Answer: 20 µM

Question: And the IC50 [28]?
Answer: 20 µM

Question: And the IC50 [29]?
Answer: 20 µM

Question: What about the IC50 [30] of the same molecule?
Answer: 20 µM

Question: And the IC50 [31]?
Answer: 20 µM

Question: What about the IC50 [32] of the same molecule?
Answer: 20 µM

Question: What about the IC50 [33] of the same molecule?
Answer: 20 µM

Question: And the IC50 [34]?
Answer: 20 µM

Question: What about the IC50 [35] of the same molecule?
Answer: 20 µM

Question: And the IC50 [36]?
Answer: 20 µM

Question: And the IC50 [37]?
Answer: 20 µM

Question: What about the IC50 [38] of the same molecule?
Answer: 8.61 µM

Question: What about the IC50 [39] of the same molecule?
Answer: 20 µM

Question: What about the IC50 [40] of the same molecule?
Answer: 20 µM

Question: And the IC50 [41]?
Answer: 3.43 µM

Question: What about the IC50 [42] of the same molecule?
Answer: 20 µM

Question: What about the IC50 [43] of the same molecule?
Answer: 20 µM

Question: What about the IC50 [44] of the same molecule?
Answer: 11.1 µM

Question: What about the IC50 [45] of the same molecule?
Answer: 20 µM

Question: And the IC50 [46]?
Answer: 6.19 µM

Question: What about the IC50 [47] of the same molecule?
Answer: 20 µM

Question: And the IC50 [48]?
Answer: 20 µM

Question: And the IC50 [49]?
Answer: 20 µM

Question: What about the IC50 [50] of the same molecule?
Answer: 20 µM

Question: And the IC50 [51]?
Answer: 20 µM

Question: And the IC50 [52]?
Answer: 20 µM

Question: And the IC50 [53]?
Answer: 20 µM

Question: And the IC50 [54]?
Answer: 20 µM

Question: What about the IC50 [55] of the same molecule?
Answer: 20 µM

Question: What about the IC50 [56] of the same molecule?
Answer: 20 µM

Question: What about the IC50 [57] of the same molecule?
Answer: 20 µM

Question: And the IC50 [58]?
Answer: 20 µM

Question: And the Activity [59]?
Answer: Dose-Dependent Effect

Question: What about the IC50 [60] of the same molecule?
Answer: 6.07 µM

Question: What about the IC50 [61] of the same molecule?
Answer: 20 µM

Question: Which results are given for C/C=C/Cn1cc(-c2ccc(C(=O)N3CCOCC3)cc2)c2cc[nH]c2c1=O?
Answer: IC50 [1]: 20 µM; IC50 [2]: 20 µM; IC50 [3]: 16.9 µM; IC50 [4]: 20 µM; IC50 [5]: 20 µM; IC50 [6]: 20 µM; IC50 [7]: 20 µM; IC50 [8]: 20 µM; IC50 [9]: 20 µM; IC50 [10]: 20 µM; IC50 [11]: 20 µM; IC50 [12]: 20 µM; IC50 [13]: 20 µM; IC50 [14]: 20 µM; IC50 [15]: 20 µM; IC50 [16]: 20 µM; IC50 [17]: 20 µM; IC50 [18]: 20 µM; IC50 [19]: 20 µM; IC50 [20]: 20 µM; IC50 [21]: 20 µM; IC50 [22]: 20 µM; IC50 [23]: 20 µM; IC50 [24]: 20 µM; IC50 [25]: 20 µM; IC50 [26]: 20 µM; IC50 [27]: 20 µM; IC50 [28]: 20 µM; IC50 [29]: 20 µM; IC50 [30]: 20 µM; IC50 [31]: 20 µM; IC50 [32]: 20 µM; IC50 [33]: 20 µM; IC50 [34]: 20 µM; IC50 [35]: 20 µM; IC50 [36]: 20 µM; IC50 [37]: 20 µM; IC50 [38]: 12.2 µM; IC50 [39]: 20 µM; IC50 [40]: 20 µM; IC50 [41]: 7 µM; IC50 [42]: 20 µM; IC50 [43]: 20 µM; IC50 [44]: 12.1 µM; IC50 [45]: 20 µM; IC50 [46]: 9.33 µM; IC50 [47]: 20 µM; IC50 [48]: 20 µM; IC50 [49]: 20 µM; IC50 [50]: 20 µM; IC50 [51]: 20 µM; IC50 [52]: 20 µM; IC50 [53]: 20 µM; IC50 [54]: 20 µM; IC50 [55]: 20 µM; IC50 [56]: 20 µM; IC50 [57]: 20 µM; IC50 [58]: 20 µM; Activity [59]: Dose-Dependent Effect; IC50 [60]: 20 µM; IC50 [61]: 20 µM
